Test results published in patent US6803372B2, “Spiro compounds” (Banyu Pharmaceutical Co., Ltd., priority 1999, dated 2004).

system: not given; assay: not given; conditions: not given

| Compound | melting point [°C] |
| --- | --- |
| CCn1ccnc1-c1ccc(NC(=O)N2CCC3(CC2)OC(=O)c2ccccc23)cc1 [Example 38, N-[4-(1-ethyl-2-imidazolyl)phenyl]-3-oxospiro[isobenzofuran-1(3H),4′-piperidine]-1′-carboxamide] | 221 to 223 |
| O=C1Cc2ccccc2C2(CCN(C(=O)Nc3ccc4c(c3)CCCC4=O)CC2)N1 [Example 10, 3,4-Dihydro-3-oxo-N-(5-oxo-5,6,7,8-tetrahydro-2-naphthyl)spiro[isoquinoline-1(2H),4′-piperidine]-1′-carboxamide] | 220.5 to 222.2 |
| O=C1Cc2ccccc2C2(CCN(C(=O)Nc3cn(-c4cccc(OC(F)F)c4)cn3)CC2)N1 [Example 14, N-[1-(3-difluoromethoxyphenyl)-4-imidazolyl]-3,4-dihydro-3-oxospiro[isoquinoline-1(2H),4′-piperidine]-1′-carboxamide] | 161 to 163 |
| O=C1Cc2ccccc2C2(CCN(C(=O)Nc3cn(-c4cccc5ccoc45)cn3)CC2)N1 [Example 13, N-[1-(7-benzo[b]furanyl)-4-imidazolyl]-3,4-dihydro-3-oxospiro[isoquinoline-1(2H),4′-piperidine]-1′-carboxamide] | 192 to 194 |
| O=C1Cc2ccccc2C2(CCN(C(=O)Nc3ccc(Cl)c(Cl)c3)CC2)N1 [Example 16, N-(3,4-dichlorophenyl)-3,4-dihydro-3-oxospiro[isoquinoline-1(2H),4′-piperidine]-1′-carboxamide] | > 300 |
| Cc1ccc2ccc(NC(=O)N3CCC4(CC3)OC(=O)c3ccccc34)nc2c1 [Example 24, N-(7-methyl-2-quinolyl)-3-oxospiro[isobenzofuran-1(3H),4′-piperidine]-1′-carboxamide] | 178 to 180 |
| O=C1NC2(CCN(C(=O)Nc3cnc(-c4ccccc4)cn3)CC2)c2ccccc21 [Example 2, 3-oxo-N-(5-phenyl-2-pyrazinyl)spiro[isoindoline-1,4′-piperidine]-1′-carboxamide] | 286 to 287 |
| O=C1Cc2ccccc2C2(CCN(C(=O)Nc3cn(-c4cccc(Cl)c4)cn3)CC2)N1 [Example 17, N-[1-(3-chlorophenyl)-4-imidazolyl]-3,4-dihydro-3-oxospiro[isoquinoline-1(2H),4′-piperidine]-1′-carboxamide] | 255 to 258 |
| Cc1cccc2sc(NC(=O)N3CCC4(CC3)NC(=O)Cc3ccccc34)nc12 [Example 20, 3,4-Dihydro-N-(4-methyl-2-benzothiazolyl)-3-oxospiro[isoquinoline-1(2H),4′-piperidine]-1′-carboxamide] | 144 to 146 |
| O=C1OC2(CCN(C(=O)Nc3cc(-c4ccc(Cl)cc4)[nH]n3)CC2)c2ccccc21 [Example 30, N-[5-(4-chlorophenyl)-3-pyrazolyl]-3-oxospiro[isobenzofuran-1(3H),4′-piperidine]-1′-carboxamide] | 255 to 258 |
| O=C1Cc2ccccc2C2(CCN(C(=O)Nc3cnc(-c4ccccc4)cn3)CC2)N1 [Example 6, 3,4-Dihydro-3-oxo-N-(5-phenyl-2-pyrazinyl)spiro[isoquinoline-1(2H),4′-piperidine]-1′-carboxamide] | 237 to 239 |
| O=C1Cc2ccccc2C2(CCN(C(=O)Nc3ccc(C(=O)c4ccccn4)cc3)CC2)N1 [Example 15, 3,4-Dihydro-3-oxo-N-[4-(2-pyridylcarbonyl)phenyl]spiro[isoquinoline-1(2H),4′-piperidine]-1′-carboxamide] | 162 to 164 |
| O=C1Cc2ccccc2C2(CCN(C(=O)Nc3cnc(C(=O)c4ccccc4)cn3)CC2)O1 [Example 46, N-(5-benzoyl-2-pyrazinyl)-3,4-dihydro-3-oxospiro[1H-2-benzopyran-1,4′-piperidine]-1′-carboxamide] | 128 to 131 |
| O=C1Cc2ccccc2C2(CCN(C(=O)Nc3ncc(-c4ccccc4)s3)CC2)N1 [Example 18, 3,4-Dihydro-3-oxo-N-(5-phenyl-2-thiazolyl)spiro[isoquinoline-1(2H),4′-piperidine]-1′-carboxamide] | > 300 |
| O=C1Cc2ccccc2C2(CCN(C(=O)Nc3cc(-c4ccccc4)no3)CC2)N1 [Example 12, 3,4-Dihydro-3-oxo-N-(3-phenyl-5-isoxazolyl)spiro[isoquinoline-1(2H),4′-piperidine]-1′-carboxamide] | 239 to 241 |
| O=C1Cc2ccccc2C2(CCN(C(=O)Nc3nc4cc(Cl)ccc4o3)CC2)N1 [Example 21, N-(5-chloro-2-benzoxazolyl)-3,4-dihydro-3-oxospiro[isoquinoline-1(2H),4′-piperidine]-1′-carboxamide] | 256 to 258 |
| COc1cccc(-n2cnc(NC(=O)N3CCC4(CC3)OC(=O)c3ccccc34)c2)c1 [Example 39, N-[1-(3-methoxyphenyl)-4-imidazolyl]-3-oxospiro[isobenzofuran-1(3H),4′-piperidine]-1′-carboxamide] | 208 to 210 |

More lines, now with the values ahead:

| melting point [°C] | Compound |
| --- | --- |
| 194 to 196 | Cc1ccc2ccc(NC(=O)N3CCC4(CC3)NC(=O)c3ccccc34)nc2c1 [Example 3, N-(7-methyl-2-quinolyl)-3-oxospiro[isoindoline-1,4′-piperidine]-1′-carboxamide] |
| 99 to 100 | O=C1OC2(CCN(C(=O)Nc3cn(-c4cccc(CCO)c4)cn3)CC2)c2ccccc21 [Example 37, N-{1-[3-(2-hydroxyethyl)phenyl]-4-imidazolyl}-3-oxospiro[isobenzofuran-1(3H),4′-piperidine]-1′-carboxamide] |
| 223 to 225 | O=C1Cc2ccccc2C2(CCN(C(=O)Nc3cnc(-c4ccccn4)cn3)CC2)N1 [Example 19, 3,4-Dihydro-3-oxo-N-[5-(2-pyridyl)-2-pyrazinyl]spiro[isoquinoline-1(2H),4′-piperidine]-1′-carboxamide] |
| 232.9 to 236.5 | CC(C)=Cc1cnc(NC(=O)N2CCC3(CC2)NC(=O)Cc2ccccc23)cn1 [Example 11, 3,4-Dihydro-N-[5-(2-methyl-1-propenyl)-2-pyrazinyl]-3-oxospiro[isoquinoline-1(2H),4′-piperidine]-1′-carboxamide] |
| > 300 | CC(=O)c1ccc(NC(=O)N2CCC3(CC2)NC(=O)Cc2ccccc23)cc1 [Example 8, N-(4-acetylphenyl)-3,4-dihydro-3-oxospiro[isoquinoline-1(2H),4′-piperidine]-1′-carboxamide] |
| 193 | O=C1OC2(CCN(C(=O)Nc3ccc4ncc(OC(F)F)cc4n3)CC2)c2ccccc21 [Example 35, N-(7-difluoromethoxypyrido[3,2-b]pyridin-2-yl)-3-oxospiro[isobenzofuran-1(3H),4′-piperidine]-1′-carboxamide] |
| 251 to 254 | O=C1OC2(CCN(C(=O)Nc3cn(-c4cnc5ccccc5c4)cn3)CC2)c2ccccc21 [Example 28, 3-Oxo-N-[1-(3-quinolyl)-4-imidazolyl]spiro[isobenzofuran-1(3H),4′-piperidine]-1′-carboxamide] |
| 253 to 257 | O=C1OC2(CCN(C(=O)Nc3cc(-c4cnc5ccccc5c4)[nH]n3)CC2)c2ccccc21 [Example 31, 3-oxo-N-[5-(3-quinolyl)-3-pyrazolyl]spiro[isobenzofuran-1(3H),4′-piperidine]-1′-carboxamide] |
| 216 to 218 | Cc1ccc2ccc(NC(=O)N3CCC4(CC3)NC(=O)Cc3ccccc34)nc2c1 [Example 7, 3,4-Dihydro-N-(7-methyl-2-quinolyl)-3-oxospiro[isoquinoline-1(2H),4′-piperidine]-1′-carboxamide] |

target: T1, human NPY Y5 receptor (Homo sapiens, UniProt Q15761); assay: NPY binding inhibition test (Pharmacological Test 1); conditions: [125I]peptideYY, membrane sample from cells expressing NPY Y5 receptor, 25° C., 2 hours; read-out: IC50 of the test compound against specific peptideYY binding
T1 construct: expressed in transfected cells; host or cells: COS-7, CHO and LM(tk-)
T1 sequence (Q15761 1-445): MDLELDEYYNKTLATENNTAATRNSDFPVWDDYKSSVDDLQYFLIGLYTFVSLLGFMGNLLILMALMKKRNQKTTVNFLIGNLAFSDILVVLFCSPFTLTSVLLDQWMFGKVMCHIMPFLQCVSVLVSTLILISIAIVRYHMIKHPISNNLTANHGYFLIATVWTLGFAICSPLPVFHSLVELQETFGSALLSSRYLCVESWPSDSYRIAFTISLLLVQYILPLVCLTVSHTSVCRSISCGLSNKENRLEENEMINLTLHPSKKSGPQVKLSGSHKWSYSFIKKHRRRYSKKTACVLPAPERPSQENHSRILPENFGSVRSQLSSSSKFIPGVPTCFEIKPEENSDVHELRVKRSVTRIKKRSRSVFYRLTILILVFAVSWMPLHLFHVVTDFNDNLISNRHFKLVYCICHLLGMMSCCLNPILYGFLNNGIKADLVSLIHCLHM
Source text: Pharmacological Test 1 (NPY Binding Inhibition Test)
cDNA sequence encoding human NPY Y5 receptor [International patent publication number WO96/16542] was cloned into expression vectors pcDNA3, pRc/RSV (made by Invitrogen Inc.) and pCI-neo (made by Promega Inc.). This obtained expression vectors were transfected to host cells COS-7, CHO and LM(tk-) (American Type Culture Collection) by cationic lipid method [Proceedings of the National Academy of Sciences of the United States of America, 84: 7413(1987)] to give NPY Y5 receptor expression cells.
A membrane sample prepared from the cells which expressed NPY Y5 receptor was incubated together with a test compound and [^125I]peptideYY (NEN) (20,000 cpm) in an assay buffer (25 mM Tris buffer, pH7.4, containing 10 mM magnesium chloride, 1 mM phenylmethylsulfonyl fluoride, 0.1% bacitracin and 0.5% bovine serum albumin) at 25° C. for 2 hours, then filtered through a glass filter GF/C and washed with 5 mM Tris buffer (pH7.4) containing 0.3% BSA. The radioactivity of the cake on the glass filter was measured. Nonspecific binding was measured in the presence of 1 μM peptideYY and a 50% Inhibitory Concentration (IC50) of the test compound against specific peptideYY binding was determined [Endocrinology, 131: 2090(1992)].

| IC50 [nM] | Compound |
| --- | --- |
| 1.5 | O=C1Cc2ccccc2C2(CCN(C(=O)Nc3ccc(C(=O)c4ccccc4)cc3)CC2)O1 [Example 44, N-(4-benzoylphenyl)-3,4-dihydro-3-oxospiro[1H-2-benzopyran-1,4′-piperidine]-1′-carboxamide] |
| 0.48 | O=C1OC2(CCC(C(=O)Nc3ncc(-c4ccccc4)cn3)CC2)c2ccccc21 (stereo not drawn) [Example 50, Trans-3′-oxo-N-(5-phenyl-2-pyrimidinyl)spiro[cyclohexane-1,1′(3′H)-isobenzofuran]-4-carboxamide] |
| 1.2 | O=C(c1ccccc1)c1ccc(NC(=O)N2CCC3(CC2)NC(=O)c2ccccc23)cc1 [Example 1, N-(4-benzoylphenyl)-3-oxospiro[isoindoline-1,4′-piperidine]-1′-carboxamide] |
